In test [1] the target is Rat CYP 17 Lyase (Rattus norvegicus (Rat), UniProt P11715). The experiment in a line: Rat CYP17 lyase model, rat testes microsomes. It is filed as biochemical. The note with it: substrate 0.5 μM, second value of Human/Rat cell, read-out: Lyase IC 50 Rat. The method, then: For the Rat CYP 17 Lyase Model:
The same procedure described above was used but using rat testes microsomes as the source and with a substrate concentration of 0.5 μM.

Test [2] concerns the target Human CYP17 enzyme (Cytochrome P450, 17-20 lyase) (Homo sapiens (Human), UniProt P05093). In words: CYP17 lyase assay, recombinant human CYP17 enzyme, 17-α-hydroxy pregnenolone [21-3H] substrate. To be noted: for pIC50: recombinant human CYP17, first value of Human/Rat cell, read-out: Lyase IC 50 Human. It is filed as biochemical. The text has this: 1) Cvtochrome P450, 17-20 Lyase (CYP17-Lyase) Assay Development Using Recombinant Human CYP17 Enzyme and 17-α-Hydroxy Pregnenolone [21-3H] as the Substrate
Cytochrome P450, 17-α-Hydroxylase, 17-20 lyase (CYP17) is a multi functional enzyme that plays a key role in the biosynthesis of steroid hormones. […] In the hydroxylation reaction, it converts progesterone and pregnenolone to the corresponding hydroxylated products 17-α-hydroxy progesterone and 17-α-hydroxy pregnenolone. In the lyase reaction, it catalyzes the conversion of these hydroxylated substrates to Androstenedione and Dehydroepiandrosterone (DHEA) respectively. In the Cyp17 lyase assay described here, the conversion of 17-α-hydroxy pregnenolone to Dehydroepiandrosterone and acetic acid is being monitored.
The conversion of 17-α-hydroxy pregnenolone to Dehydroepiandrosterone is accompanied by the release of acetic acid. In the Cyp17 lyase assay, 17-α-hydroxy pregnenolone labeled with tritium (3H) at position 21 is used as the substrate. Chloroform extraction removes the radioactive steroids and acetic acid is taken into aqueous layer. The tritiated acetic acid released in the assay thus extracted is quantified to determine the enzyme activity.
Human Cyp 17 gene was cloned and expressed in Adenoviral expression system in A549 cell lines. The purified cell membrane preparations were used as the source for Human CYP17 enzyme. Total protein concentration: 8 mg/mL.
For routine screening, the assay was set up with 16 μg of enzyme in 50 μL reaction volume. 17α-hydroxy pregnenolone [21-3H] was added to a final concentration of […] NADPH is used at a final concentration of 4.2 mM. Total reaction volume was made up to 50 μL with 50 mM Phosphate buffer pH 7.5. The reaction mixture was incubated at room temperature for 90 minutes with gentle shaking. The reaction was stopped by the addition of 100 μl, of buffer. 500 μl, of 5% freshly prepared activated charcoal was added to the solution and mixed well by vortexing. The samples were centrifuged at 17568×g for 5 minutes. (14000 rpm). The supernatant was carefully transferred to fresh tube and 1.3 mL of scintillation fluid was added, mixed by vortexing.
The measurements were carried out in 2.0 mL Eppendorf™ tubes. Each tube was counted for 1 minute. The amount of tritiated acetic acid released is proportional to the lyase activity. Percent lyase activity in presence of inhibitor was calculated using the formula given below.
[formula] Sample: Enzyme reaction in presence of inhibitor. Positive control: Enzyme reaction without inhibitor but containing DMSO at 1% final concentration. Blank—Contains all reagents except enzyme. % Inhibition=100%−% Lyase activity
For IC50 determination, the % inhibition was plotted as a function of inhibitor concentration. The data was fitted to sigmoidal equation using Graphpad Prism® software IV to generate IC50 values.

pIC50: −log10 of the molar value.

Chain of Human CYP17 enzyme (Cytochrome P450, 17-20 lyase) (P05093 whole entry): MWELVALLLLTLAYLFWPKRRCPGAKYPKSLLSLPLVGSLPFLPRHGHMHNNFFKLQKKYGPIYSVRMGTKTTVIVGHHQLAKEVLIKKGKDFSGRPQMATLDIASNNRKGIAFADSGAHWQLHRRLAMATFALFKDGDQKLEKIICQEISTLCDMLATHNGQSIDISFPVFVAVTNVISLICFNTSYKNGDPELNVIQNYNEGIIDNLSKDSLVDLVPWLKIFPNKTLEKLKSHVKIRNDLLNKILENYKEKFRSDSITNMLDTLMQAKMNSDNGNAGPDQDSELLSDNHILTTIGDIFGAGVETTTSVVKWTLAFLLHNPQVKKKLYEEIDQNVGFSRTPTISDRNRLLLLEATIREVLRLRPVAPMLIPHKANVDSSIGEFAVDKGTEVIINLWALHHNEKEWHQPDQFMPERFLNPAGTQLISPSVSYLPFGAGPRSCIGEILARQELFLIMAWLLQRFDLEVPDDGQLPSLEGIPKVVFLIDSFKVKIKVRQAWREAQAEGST
Chain of Rat CYP 17 Lyase (P11715 whole entry): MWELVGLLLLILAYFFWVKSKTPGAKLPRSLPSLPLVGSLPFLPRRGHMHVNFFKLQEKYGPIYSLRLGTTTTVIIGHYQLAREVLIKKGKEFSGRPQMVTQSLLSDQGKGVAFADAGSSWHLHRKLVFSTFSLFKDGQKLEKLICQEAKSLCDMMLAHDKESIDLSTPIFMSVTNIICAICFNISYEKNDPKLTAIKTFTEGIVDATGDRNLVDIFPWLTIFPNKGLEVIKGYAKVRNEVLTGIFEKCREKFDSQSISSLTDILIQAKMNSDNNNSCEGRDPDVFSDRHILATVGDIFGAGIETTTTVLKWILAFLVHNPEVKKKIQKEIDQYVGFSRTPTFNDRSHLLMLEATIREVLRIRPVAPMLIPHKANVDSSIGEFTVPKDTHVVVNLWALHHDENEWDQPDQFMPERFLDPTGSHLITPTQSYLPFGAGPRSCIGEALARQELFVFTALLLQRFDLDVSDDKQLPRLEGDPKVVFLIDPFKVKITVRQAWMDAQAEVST

Turning to `O=C1N(c2ccnc(Cl)c2)CCN1c1cnccc1C1CC1` [Example 1A, 1-(2-chloropyridin-4-yl)-3-(4-cyclopropylpyridin-3-yl)imidazolidin-2-one], the pIC50 was 8.57 in test [1] and 8.10 in test [2]. For the compound `O=C1N(c2cc3cc(F)ccc3s2)CCN1c1cnccc1C1CC1` [Example 22A, 1-(4-cyclopropylpyridin-3-yl)-3-(5-fluorobenzo[b]thiophen-2-yl)imidazolidin-2-one], the pIC50 in test [2] is 8.15. With `O=C1N(c2ccc3c(C(F)(F)F)csc3c2)CCN1c1cnccc1C1CC1` [Example 23A, 1-(4-cyclopropylpyridin-3-yl)-3-(3-(trifluoromethyl)benzo[b]thiophen-6-yl)imidazolidin-2-one], the pIC50 in test [2] was 5.92. The same measure, in the same setting: as for `Cc1c(F)sc2ccc(N3CCN(c4cnccc4C4CC4)C3=O)cc12` [Example 24A, 1-(4-Cyclopropyl-pyridin-3-yl)-3-(2-fluoro-3-methylbenzo[b]thiophen-5-yl)-imidazolidin-2-one], the figure is 7.72; as for `O=C1N(c2ccc3cc(F)sc3c2)CCN1c1cnccc1C1CC1` [Example 25A, 1-(4-cyclopropyl-pyridin-3-yl)-3-(2-fluoro-benzo(b)thiophene-6-yl)imidazolidin-2-one], 7.52. Same read-out and setting: as for `O=C1N(c2cc(F)c3ccsc3c2)CCN1c1cnccc1C1CC1` [Example 26A, 1-(4-cyclopropyl-pyridin-3-yl)-3-(4-fluoro-benzo[b]thiophen-6-yl)imidazolidin-2-one], the figure is 8.22; as for `O=C1N(c2cc3sccc3cc2F)CCN1c1cnccc1C1CC1` [Example 27A, 1-(4-cyclopropyl-pyridin-3-yl)-3-(5-fluoro-benzo[b]thiophen-6-yl)imidazolidin-2-one], 6.34; as for `O=C1N(c2cc3ccsc3cc2F)CCN1c1cnccc1C1CC1` [Example 28A, 1-(4-cyclopropylpyridin-3-yl)-3-(6-fluorobenzo[b]thiophen-5-yl)imidazolidin-2-one], 6.26. Same read-out and setting: as for `O=C1N(c2ccnc(Cl)c2)[C@@H]2C[C@@H]2N1c1cnccc1C1CC1` [Example 30A-I, (1R,5S)-2-(2-chloropyridin-4-yl)-4-(4-cyclopropylpyridin-3-yl)-2,4-diazabicyclo[3.1.0]hexan-3-one], the figure is 6.79; as for `O=C1N(c2cnccc2C2CC2)[C@@H]2C[C@@H]2N1c1ccnc(Cl)c1` [Example 30A-II, (1S,5R)-2-(2-chloropyridin-4-yl)-4-(4-cyclopropylpyridin-3-yl)-2,4-diazabicyclo[3.1.0]hexan-3-one], 8.22.

For the compound `COc1cc(N2C(=O)N(c3cnccc3C3CC3)[C@H]3C[C@H]32)ccn1` [Example 31A-1, (1S,5R)-2-(4-cyclopropylpyridin-3-yl)-4-(2-methoxypyridin-4-yl)-2,4-diazabicyclo[3.1.0]hexan-3-one], the pIC50 in test [2] was 6.77.

For `COc1cc(N2C(=O)N(c3cnccc3C3CC3)[C@@H]3C[C@@H]32)ccn1` [Example 31A-II, (1R,5S)-2-(4-cyclopropylpyridin-3-yl)-4-(2-methoxypyridin-4-yl)-2,4-diazabicyclo[3.1.0]hexan-3-one], in test [2], the pIC50 is 7.92.

In the case of `O=C1N(c2ccnc(C(F)(F)F)c2)[C@@H]2C[C@@H]2N1c1cnccc1C1CC1` [Example 32A-I, (1S,5R)-2-(4-cyclopropylpyridin-3-yl)-4-(2-(trifluoromethyl)pyridin-4-yl)-2,4-diazabicyclo[3.1.0]hexan-3-one], the pIC50 in test [2] was 6.74. As for `O=C1N(c2ccnc(Cl)c2)CCN1c1cnccc1C1(O)CCC1` [Example 33A, 1-(2-chloro-pyridin-4-yl)-3-[4-(1-hydroxy-cyclobutyl)-pyridin-3-yl]imidazolidin-2-one], in test [2], the pIC50 was 7.35. For the compound `O=C1N(c2ccnc(Cl)c2)CCN1c1cnccc1C1CCCC1` [Example 34A, 1-(2-chloropyridin-4-yl)-3-(4-cyclopentyl-pyridin-3-yl)-imidazolidin-2-one], the pIC50 in test [2] is 7.89. On the same count and under the same terms, as for `O=C1N(c2ccnc(Cl)c2)CCN1c1cnccc1C1(O)CCCC1` [Example 35A, 1-(2-chloropyridin-4-yl)-3-[4-(1-hydroxycyclopentyl)-pyridin-3-yl]-imidazolidin-2-one], the figure is 6.47; as for `O=C1N(c2cccc(C(F)(F)F)c2)CCN1c1cnccc1C1(O)CC1` [Example 36A, 1-[4-(1-hydroxy-cyclopropyl)-pyridin-3-yl]-3-(3-trifluoromethyl-phenyl)-imidazolidin-2-one], 7.57. The same measure, in the same setting: in the case of `O=C1N(c2cc(Cl)nc(C(F)(F)F)c2)CCN1c1cnccc1C1CC1` [Example 37A, 1-(2-chloro-6-(trifluoromethyl)pyridin-4-yl)-3-(4-cyclopropylpyridin-3-yl)imidazolidin-2-one] it was 8.30; in that of `O=C1N(c2cc(C3CC3)ncn2)CCN1c1cnccc1C1CC1` [Example 38A, 1-(4-cyclopropylpyridin-3-yl)-3-(6-cyclopropylpyrimidin-4-yl)imidazolidin-2-one], 7.32.

Turning to `O=C1N(c2ccnc(C3CC3)c2)CCN1c1cnccc1C1CC1` [Example 39A, 1-(4-cyclopropylpyridin-3-yl)-3-(2-cyclopropylpyridin-4-yl)imidazolidin-2-one], the pIC50 in test [2] is 7.92. The same measure, in the same setting: in the case of `COc1cc(N2CCN(c3cnccc3C3CC3)C2=O)ncn1` [Example 40A, 1-(4-cyclopropylpyridin-3-yl)-3-(6-methoxypyrimidin-4-yl)imidazolidin-2-one] it was 7.08; in that of `Cc1cc(N2CCN(c3cnccc3C3CC3)C2=O)ncn1` [Example 41A, 1-(4-cyclopropylpyridin-3-yl)-3-(6-methylpyrimidin-4-yl)imidazolidin-2-one], 7.15; in that of `Cc1cc(N2CCN(c3cnccc3C3CC3)C2=O)ncc1F` [Example 42A, 1-(4-cyclopropylpyridin-3-yl)-3-(5-fluoro-4-methylpyridin-2-yl)imidazolidin-2-one], 7.66. The same measure, in the same setting: in the case of `O=C1N(c2ccnc(C3CC3)n2)CCN1c1cnccc1C1CC1` [Example 43A, 1-(4-cyclopropylpyridin-3-yl)-3-(2-cyclopropylpyrimidin-4-yl)imidazolidin-2-one] it was 7.44; in that of `Cc1nccc(N2CCN(c3cnccc3C3CC3)C2=O)n1` [Example 44A, 1-(4-cyclopropylpyridin-3-yl)-3-(2-methylpyrimidin-4-yl)imidazolidin-2-one], 6.40.

Regarding `O=C1N(c2cc(Cl)nc(C(F)(F)F)n2)CCN1c1cnccc1C1CC1` [Example 45A, 1-(6-chloro-2-(trifluoromethyl)pyrimidin-4-yl)-3-(4-cyclopropylpyridin-3-yl) imidazolidin-2-one], the pIC50 in test [2] is 8.00. Still for that read-out and setting: in the case of `O=C1N(c2cc(Cl)nc(Cl)c2)CCN1c1cnccc1C1CC1` [Example 46A, 1-(4-cyclopropylpyridin-3-yl)-3-(2,6-dichloropyridin-4-yl)imidazolidin-2-one] it was 8.72; in that of `O=C1N(c2cc(Cl)nc(C3CC3)c2)CCN1c1cnccc1C1CC1` [Example 47A, 1-(2-chloro-6-cyclopropylpyridin-4-yl)-3-(4-cyclopropylpyridin-3-yl)imidazolidin-2-one], 8.28. Same read-out and setting: in the case of `O=C1N(c2cc(C3CC3)nc(C(F)(F)F)c2)CCN1c1cnccc1C1CC1` [Example 48A, 1-(2-cyclopropyl-6-(trifluoromethyl)pyridin-4-yl)-3-(4-cyclopropylpyridin-3-yl)imidazolidin-2-one] it was 8.32. For `O=C1N(c2cc(C(F)(F)F)nc(C(F)(F)F)c2)CCN1c1cnccc1C1CC1` [Example 49A, 1-(2,6-bis(trifluoromethyl)pyridin-4-yl)-3-(4-cyclopropylpyridin-3-yl)imidazolidin-2-one], the pIC50 in test [2] is 8.22. `O=C1N(c2ccnc(C(F)(F)F)c2)CCN1c1c(C2CC2)ccnc1O` [Example 50A, 1-(4-cyclopropyl-2-hydroxypyridin-3-yl)-3-(2-(trifluoromethyl)pyridin-4-yl)imidazolidin-2-one]: the inhibition (usually the drop in the measured response relative to a control, in per cent) at 10 µM in test [2] turned out to be 51%.
